Laboratory results published in PMC11628281, “A sulfonimide derivative of bezafibrate as a dual inhibitor of cyclooxygenase-2 and PPARα” (Frontiers in Pharmacology, 2024).

Target: T1, cyclooxygenase (COX)-2 (Homo sapiens, UniProt P35354)
T1 construct: gene PTGS2
T1 sequence (P35354 18-604): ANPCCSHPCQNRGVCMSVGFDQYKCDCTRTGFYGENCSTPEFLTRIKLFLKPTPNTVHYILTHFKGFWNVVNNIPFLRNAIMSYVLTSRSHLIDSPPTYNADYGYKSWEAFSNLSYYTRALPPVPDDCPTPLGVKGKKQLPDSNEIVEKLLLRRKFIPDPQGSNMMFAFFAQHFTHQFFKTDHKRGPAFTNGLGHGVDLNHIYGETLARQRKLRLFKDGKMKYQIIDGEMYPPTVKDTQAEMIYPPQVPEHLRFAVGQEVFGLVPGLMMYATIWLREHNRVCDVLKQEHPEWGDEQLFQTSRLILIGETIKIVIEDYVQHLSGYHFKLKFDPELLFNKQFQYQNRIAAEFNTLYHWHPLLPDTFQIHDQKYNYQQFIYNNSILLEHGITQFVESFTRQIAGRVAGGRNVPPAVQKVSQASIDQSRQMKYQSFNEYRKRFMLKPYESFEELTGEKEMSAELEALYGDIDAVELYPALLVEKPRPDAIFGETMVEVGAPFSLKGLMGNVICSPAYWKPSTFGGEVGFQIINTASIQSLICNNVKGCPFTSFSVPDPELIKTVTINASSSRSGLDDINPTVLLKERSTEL
Assay: LPS-stimulated human whole blood PGE2 (RIA); also HCA7 cells (COX-2 only), IC50 […], with washout

## CC(C)(Oc1ccc(CCNC(=O)c2ccc(Cl)cc2)cc1)C(=O)NS(=O)(=O)c1ccccc1 [compound 6, AA520]
  IC50: 100 nM
